The source of these data is paper PMC9982066, “Inhibition of Ehrlichia chaffeensis infection by cell-permeable macrocyclic peptides that bind type IV secretion effector Etf-1” (PNAS Nexus, 2023).

One data set concerns the target Etf-1 (Ehrlichia chaffeensis, UniProt Q2GG12). Briefly: FP assay of Etf-1 binding with FAM-labeled peptides.
Another data set concerns Etf-1-GFP. Briefly: mitochondrial localization of ectopically expressed Etf-1-GFP in RF/6A cells. Particulars: 10 μM, 2 days. The class given is cell-based, Ehrlichia chaffeensis. On the procedure:
For mitochondria localization analysis, RF/6A cells were seeded onto a cover glass in a 12-well plate for 3 h, then infected with E. chaffeensis at ∼30 MOI. Alternatively, cells were transfected with Etf-1-GFP or Etf-1-DsRed plasmids using Fugene HD (Promega) or by electroporation at 100 V and 1,000 µF using the Gene Pulser Xcell System (BioRad) according to the manufacturers’ instructions ([16]). […] To examine the roles of macrocyclic peptides on Etf-1 localization on E. chaffeensis inclusions, infected RF/6A cells were treated with 10 μM peptides at 3 h pi for 2 days. At 2 days pi or pt, cells were washed 3 times with PBS, then fixed in 4% PFA for 20 min. Native Etf-1 and mitochondria marker cytochrome C proteins were labeled with rabbit anti-Etf-1 IgG and mouse anti-cytochrome C, then with AF488-conjugated goat anti-rabbit and anti-mouse secondary antibodies in PGS (PBS with 0.1% gelatin and 0.1% saponin) for 1 h each at RT. Host-cell and Ehrlichial DNAs were stained with 300 nM DAPI, and fluorescence with differential interference contrast images were observed and captured with a DeltaVision deconvolution microscope (Applied Precision, Issaquah, WA, USA). Percentages of Etf-1 protein colocalization with macrocyclic peptides or E. chaffeensis inclusions were quantified by counting 10–20 cells per group from three independent experiments.

Data set [1] in a line: serum stability assay (UPLC). As to conditions: 25% (v/v) in DPBS; 25% human serum, 37°C, after 22 h; read-out: degradation. It is filed as in vitro ADME. On the procedure:
In comparison, the linear peptide Tat (cell-permeable peptide of HIV) was completely degraded within the first 120 min of incubation (Fig. 4B).
Human serum was diluted to 25% (v/v) in sterile DPBS and equilibrated at 37°C for 15 min. Peptides were added to the diluted serum to a final concentration of 20 μM and incubated at 37°C with gentle mixing. At designated time points, 30 μL aliquots were withdrawn and mixed with 30 μL of 15% trichloroacetic acid in MeOH (w/v) and 30 μL of MeCN and stored at 4°C overnight to completely precipitate the serum proteins. Next, each aliquot was centrifuged (15,000g, 5 min, 4°C) and 14 μL of the supernatant was injected in an UPLC equipped with an analytical Waters Acquity UPLC BEH C18 column (1.7 μm, 2.1 mm I.D., 100 mm length) and an inline UV-Vis detector and a single quadrupole mass detector. The column was eluted with a linear gradient of 20–50% MeCN in ddH2O containing 0.1% TFA. A UV/Vis detector at 214 nm and the mass spec quantifying the ion counts corresponding to the [M + 3H]^3+ ion of the analytes were used to analyze the samples. The area under the peak of interest was obtained by integration, normalized to that of the peptide at t = 0, and plotted as a function of the incubation time to determine the serum half-life of the peptide.

In another data set the test system is E. chaffeensis. The data set can be described thus: morphological examination of E. chaffeensis infection of THP-1 cells by Diff-Quik staining.

“Also recorded” adds a separate entry of the source. Starred links: 1 amine or outer side, 2 acyl side, 3 side chain; linkers in the order of their positions; H or OH if unused. Positions of bridges follow the written chain, without caps; N, C: chain ends. Non-standard residues stand in square brackets, D forms with d. Residues, ends and D or L forms follow the SMILES beside them. Trimesoyl = O=C(c1cc(C(=O)[*:2])cc(C(=O)[*:3])c1)[*:1]; d2Nal = N[C@H](Cc1ccc2ccccc2c1)C(=O)O; Dap = NC[C@H](N)C(=O)O A value given as a limit tells only on which side of the number the result lay.

Etf-1, sequence (Q2GG12 entry or part of it): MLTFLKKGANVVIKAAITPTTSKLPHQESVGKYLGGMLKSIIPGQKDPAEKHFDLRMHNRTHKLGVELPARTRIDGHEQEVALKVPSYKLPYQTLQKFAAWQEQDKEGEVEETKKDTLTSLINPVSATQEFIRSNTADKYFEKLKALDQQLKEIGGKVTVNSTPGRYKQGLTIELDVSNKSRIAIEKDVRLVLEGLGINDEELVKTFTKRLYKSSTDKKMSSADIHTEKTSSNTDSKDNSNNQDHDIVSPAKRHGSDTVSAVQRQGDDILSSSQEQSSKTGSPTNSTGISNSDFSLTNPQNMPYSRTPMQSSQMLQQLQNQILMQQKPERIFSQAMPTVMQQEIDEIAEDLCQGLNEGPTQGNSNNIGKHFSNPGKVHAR

For `CC(C)C[C@H]1NC(=O)[C@H](CO)NC(=O)[C@H]2CCCN2C(=O)[C@H](CCC(N)=O)NC(=O)[C@H](Cc2c[nH]cn2)NC(=O)[C@H](Cc2ccc(O)cc2)NC(=O)c2cc3cc(c2)C(=O)NC[C@H](NC1=O)C(=O)N[C@@H](Cc1ccccc1)C(=O)N[C@H](Cc1ccc2ccccc2c1)C(=O)N[C@H](CCCNC(=N)N)C(=O)N[C@@H](CCCNC(=N)N)C(=O)N[C@H](CCCNC(=N)N)C(=O)N[C@@H](CCCNC(=N)N)C(=O)N[C@H](C(N)=O)CNC3=O` [Peptide B7, TMA-Tyr-His-Gln-pro-Ser-leu-Dap-Phe-nal-arg-Arg-arg-Arg-Dap] (YHQ[dP]S[dL][Dap]F[d2Nal][dR]R[dR]R[Dap]-NH2; linker N-7-14 via Trimesoyl), binding at Etf-1 was put at a Kd of 6.5 ± 0.7 µM. In the data set on Etf-1-GFP, the “effect on mitochondrial localization of Etf-1-GFP” value is recorded as “neither peptide B7 nor C17 affected mitochondrial localization”. For the same compound, the metabolised at 22 h, 20 µM in data set [1] was under 20%. Further, in the data set with E. chaffeensis (THP-1 cells, Fig. S4 (with Figs. 5, S3)), the “E. chaffeensis infection (numbers and sizes of morulae)” value was “significantly inhibited; also recorded: potent inhibition”. In the data set with E. chaffeensis (THP-1 host cells), the “cytotoxicity (cell lysis in treated groups)” value is on record as “least cytotoxicity”.

In general, Kd refers to the free concentration of one partner at which half of the binding sites on the other are occupied at equilibrium, for simple one-to-one binding.
